For 60 compounds, AC50 results are on record in PubChem BioAssay AID977624 (Broad Institute, 2014).

Inconclusive results are not listed. The source made the active and inactive calls.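 Rule for the calls: active = compound lowering the normal-ribosome reporter at least twice as much as the humanized-ribosome reporter, growth loss under a set limit; inconclusive = no clear call, values can overlap the other calls; inactive = the rest.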 Bounds are passed on as bounds.

In the assay the test system is E. coli wild-type GFP strain growth, fluorescence, 24 h. Put plainly: wild-type E. coli growth inhibition versus h34 humanized strain – h34 mutant RFP, wild-type GFP, cherry-pick, dose response (AID 977624).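 Note: wild-type GFP strain co-cultured with humanized h34 ribosome RFP strain in same well.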
Consider `O=C(CCc1nc2ccccc2s1)OCC(=O)c1ccc[nH]1`, for which the AC50 was > 100 µM (inactive).
The value for `NS(=O)(=O)c1cccc(NC(=O)CSc2nnc(-c3ccccc3F)n2C2CC2)c1` was > 100 µM (inactive).
For the compound `COc1ccc(Br)c(-c2nc(CS(=O)(=O)c3ccc(F)cc3)no2)c1`, the AC50 was > 100 µM (inactive).
The figure for `COC(=O)c1cccc(CN2C(=O)SC(Nc3ccc(C)cc3)C2=O)c1` (stereo not given) is > 100 µM (inactive); for `Cc1ccc(C(=O)OCC(=O)c2c[nH]c3ccccc23)cc1NC(=O)c1ccco1` it is > 100 µM (inactive); for `O=C(NCc1ccccc1)c1nc(S(=O)(=O)Cc2ccccc2)ncc1Cl` it is > 100 µM (inactive).
The value for `C=CCn1c(-c2cc3cccc(OC)c3o2)n[nH]c1=S` was > 100 µM (inactive); that for `CCOC(=O)c1nc(S(C)(=O)=O)ncc1Cl` was > 100 µM (inactive).
The figure for `Cc1ccc(NC(=O)C2CCN(S(=O)(=O)c3ccc4c(c3)NC(=O)CO4)CC2)cc1` is > 100 µM (inactive); for `COc1cc2c(cc1OC)C1(C)N(CC2)C(C(C)=O)=NN1c1ccc(Cl)cc1` (stereo not given) it is > 100 µM (inactive); for `O=C(CCCOc1ccc(Cl)cc1Cl)Nc1ccccc1C(=O)O` it is > 100 µM (inactive).
As to `O=C(Cc1coc2cc(O)ccc12)N1CCN(S(=O)(=O)c2ccc(Br)cc2)CC1`, the AC50 was > 100 µM (inactive).
The figure for `CN(CCOc1ccccc1)S(=O)(=O)c1ccccc1C#N` is > 100 µM (inactive); for `O=C(Nc1ccc(C(=O)Nc2ccccc2Cl)cc1)c1cccnc1` it is > 100 µM (inactive); for `COc1ccc(C(=O)Nc2ccc3oc(Cc4ccc(Cl)cc4)nc3c2)cc1OC` it is > 100 µM (inactive).
Consider `CCN(c1ccccc1)S(=O)(=O)c1ccc(OC)c(OC)c1`, for which the AC50 was > 100 µM (inactive).
The value for `COC(=O)c1c(NC(=O)c2ccccc2C(=O)O)sc2c1CCC2` was > 100 µM (inactive); that for `CCOc1ccccc1/C=C/c1cc(C(=O)O)c2ccccc2n1` was > 100 µM (inactive).
The figure for `O=C(Nc1ccc(S(=O)(=O)NC2=NCCCCC2)cc1)c1ccc([N+](=O)[O-])s1` is > 100 µM (inactive); for `C[C@H](CO)N1C[C@H](C)[C@H](CN(C)C(=O)CCCN(C)C)OCCCC[C@H](C)Oc2ccc(NC(=O)Nc3cccc4ccccc34)cc2C1=O` it is > 100 µM (inactive); for `Cc1n[nH]c(C)c1Sc1ccccc1[N+](=O)[O-]` it is > 100 µM (inactive).
The figure for `FC(F)(F)c1ccc(Cl)c(-n2c(Cc3cccs3)n[nH]c2=S)c1` is > 100 µM (inactive); for `Cc1cc(Br)ccc1SCC(=O)OCC(=O)NCc1ccco1` it is > 100 µM (inactive); for `CC1(C)CC(=O)c2cnc(N3CCc4ccccc43)nc2C1` it is > 100 µM (inactive).
On to `CCCCNC(=O)C[C@@H]1C[C@@]2(C(=O)OC)CCCCC=C2N(Cc2ccccc2)C1=O`, for which the AC50 is > 100 µM (inactive).
The figure for `Cc1ccc(C2NC(=O)c3[nH]nc(-c4ccccc4)c32)cc1` (stereo not given) is > 100 µM (inactive).
The figure for `Cc1cc(OCCCCOc2ccc(S(N)(=O)=O)c(C)c2)ccc1S(N)(=O)=O` is > 100 µM (inactive); for `Cc1csc(SCc2nc3scc(-c4ccccc4)c3c(=O)[nH]2)n1` it is > 100 µM (inactive); for `NC(=O)c1sc2nnc(-c3ccccc3)c(-c3ccccc3)c2c1N` it is > 100 µM (inactive).
The figure for `CCOc1ccccc1N1CCN(Cc2cn[nH]c2-c2ccc(F)cc2)CC1` is > 100 µM (inactive); for `COc1ccc(C(=O)NCCc2ccccn2)cc1S(=O)(=O)Nc1ccc(Br)cc1` it is > 100 µM (inactive).
Turning to `O=C(c1cc(C(=O)N2CCOCC2)c2nc3ccccc3n2c1)c1cc(Cl)cc(Cl)c1O`, the AC50 was > 100 µM (inactive).
The value for `CCOc1cccc(-c2cc(-c3n[nH]c(=S)n3CC)c3ccccc3n2)c1` was > 100 µM (inactive); that for `COc1ccc(NC(=O)CN(c2ccccc2OC)S(=O)(=O)c2cccs2)cc1Cl` was > 100 µM (inactive).
The value for `CCc1ccc(NC(=O)CCc2c(C)nn(-c3ccc(N4CCCCC4)nn3)c2C)cc1` was > 100 µM (inactive); that for `Nc1cc([N+](=O)[O-])ccc1Nc1ccc(O)cc1` was > 100 µM (inactive); that for `CCOc1ccc2sc(NS(=O)(=O)c3ccc(N)cc3)nc2c1` was > 100 µM (inactive).
The value for `CC1=Nc2cc(C(=O)NCC3CCCO3)ccc2Sc2ccc(Br)cc21` (stereo not given) was > 100 µM (inactive).
Turning to `COc1cccc2c1Oc1cc([N+](=O)[O-])cc(N(C)C(C)=O)c1C=C2`, the AC50 was > 100 µM (inactive).
As to `Cc1ccc(-n2nc(C)c3c(C)c(CCC(=O)O)c(C)nc32)cc1C`, the AC50 is > 100 µM (inactive).
The value for `CCOc1ccc(NC(=O)CN(C)CC(=O)Nc2ccc(Br)cc2F)cc1OCC` was > 100 µM (inactive).
With `COc1ccc2[nH]cc(CCNC(=O)C3CC(=O)N(c4ccc(Cl)cc4)C3)c2c1` (stereo not given), the AC50 is > 100 µM (inactive).
The value for `Cc1cc(NC(=O)CS(=O)(=O)c2cn(Cc3cccc(Br)c3)c3ccccc23)no1` was > 100 µM (inactive); that for `O=C(CCCSc1nc2ccccc2s1)NCc1ccc2c(c1)OCO2` was > 100 µM (inactive); that for `O=C(NCc1nc2ccccc2[nH]1)c1ccc(S(=O)(=O)N2CCCC2)cc1` was > 100 µM (inactive).
On to `O=C(O)CCN(Cc1ccccc1)S(=O)(=O)c1ccc(Cl)cc1F`, for which the AC50 is > 100 µM (inactive).
The value for `Cc1cnc(NC(=O)Cc2c[nH]c3ccccc23)s1` was > 100 µM (inactive); that for `NC(=O)c1nsc(C(=O)N(c2ccccc2F)C(C(=O)NCc2ccc(F)cc2)c2ccc(O)cc2)c1N` (stereo not given) was > 100 µM (inactive).
The figure for `O=C(O)c1ccc2c(c1)N(Cc1ccc(F)cc1)C(=O)c1ccccc1S2` is > 100 µM (inactive); for `C[C@@H]1CN([C@H](C)CO)C(=O)c2cccc(NC(=O)c3ccncc3)c2O[C@@H]1CN(C)S(=O)(=O)c1ccc(Cl)cc1` it is > 100 µM (inactive).
The value for `CCCN(CC1CC1)C(=O)CSc1ncnc2sccc12` was > 100 µM (inactive); that for `O=C(Nc1cccc(O)c1)c1cc(-c2ccccc2Cl)on1` was > 100 µM (inactive).
Regarding `C[C@]12CCC3C(CC[C@H]4C[C@@H](O)CC[C@]34C)[C@H]1CC[C@H]2O` (stereo not given in full), the AC50 was > 100 µM (inactive).
On to `CN(C)C(=O)C1C2NC(=S)N(c3cccc(Cl)c3)C1(C)Oc1ccc(Cl)cc12` (stereo not given), for which the AC50 was > 100 µM (inactive).
The figure for `COC(=O)c1c(-c2ccc(OC)cc2)sc2cc(OC)c(OC)cc12` is > 100 µM (inactive); for `CCOc1ccc(S(=O)(=O)N(C)c2ccc(OCC(=O)Nc3ccc4[nH]c(=O)[nH]c4c3)cc2)cc1` it is > 100 µM (inactive); for `CC(Nc1ncnc2ccccc12)c1ccccc1` (stereo not given) it is > 100 µM (inactive).
As for `CCCCc1ccc(S(=O)(=O)Nc2ccc(C)c(NS(C)(=O)=O)c2)cc1`, the AC50 is > 100 µM (inactive).
The value for `COc1ccc(CNC(=O)Cc2cn(C)c3ccccc23)c(OC)c1` was > 100 µM (inactive).
`NC(=O)c1ccsc1NC(=O)COC(=O)CCOc1ccccc1`: the AC50 was > 100 µM (inactive).

A word on the AC50: it is the concentration giving half of the maximal activity seen.
